# Measured values taken from patent US11352339B2 (MISSION THERAPEUTICS LIMITED, priority 2016, dated 2022).
# Target: USP30 (Homo sapiens (Human), UniProt Q70CQ3)
# Experiment: USP30 Biochemical IC50 Assay
# Settings: fluorescence polarisation, TAMRA labelled peptide linked to ubiquitin; 30 min pre-incubation, read after 2 h; read-out: IC50 range
# Summary of the method: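 Fluorescence polarisation cleavage assay, duplicate wells: substrate is a TAMRA peptide joined to ubiquitin by an iso-peptide bond (50 nM), added after 30 min room-temperature compound–enzyme incubation. Readings at 540/590 nm immediately and at 2 h.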
# Chain of USP30 (Q70CQ3 57-517): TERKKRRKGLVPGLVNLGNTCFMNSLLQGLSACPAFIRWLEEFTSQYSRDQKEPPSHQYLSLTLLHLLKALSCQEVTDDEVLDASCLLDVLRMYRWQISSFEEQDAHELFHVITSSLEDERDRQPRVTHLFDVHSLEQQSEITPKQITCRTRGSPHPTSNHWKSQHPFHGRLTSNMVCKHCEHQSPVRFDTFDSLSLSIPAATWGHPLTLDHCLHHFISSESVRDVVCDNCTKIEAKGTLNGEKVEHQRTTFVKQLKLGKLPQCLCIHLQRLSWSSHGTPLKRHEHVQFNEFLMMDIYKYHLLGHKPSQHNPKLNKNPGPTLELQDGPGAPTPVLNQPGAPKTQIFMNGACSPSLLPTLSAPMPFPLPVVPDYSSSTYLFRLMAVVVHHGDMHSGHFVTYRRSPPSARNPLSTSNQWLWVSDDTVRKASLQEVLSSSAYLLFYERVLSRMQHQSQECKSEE
row,IC50,Compound
1,0.1 to 1 µM,"N#CN1CCC[C@H]1c1nc2cc(-c3cccc(OC(F)(F)F)c3)ccc2o1 [Example 133, (S)-2-(5-(3-(Trifluoromethoxy)phenyl)-benzo[d]oxazol-2-yl)pyrrolidine-1-carbonitrile]"
2,1 to 10 µM,"Cc1n[nH]c2cc(-c3ccc4oc([C@@H]5CCCN5C#N)nc4c3)ccc12 [Example 134, (S)-2-(5-(3-Methyl-1H-indazol-6-yl)-benzo[d]oxazol-2-yl)pyrrolidine-1-carbonitrile]"
3,1 to 10 µM,"Cn1ncc2cc(-c3ccc4oc([C@@H]5CCCN5C#N)nc4c3)ccc21 [Example 135, (S)-2-(5-(1-Methyl-1H-indazol-5-yl)-benzo[d]oxazol-2-yl)pyrrolidine-1-carbonitrile]"
4,0.1 to 1 µM,"N#CN1CCC[C@H]1c1nc2cc(-c3cccc([N+](=O)[O-])c3)ccc2o1 [Example 136, (S)-2-(5-(3-Nitrophenyl)benzo[d]oxazol-2-yl)pyrrolidine-1-carbonitrile]"
5,1 to 10 µM,"N#Cc1cccc(-c2ccc3oc([C@@H]4CCCN4C#N)nc3c2)c1F [Example 137, (S)-2-(5-(3-Cyano-2-fluorophenyl)-benzo[d]oxazol-2-yl)pyrrolidine-1-carbonitrile]"
6,0.1 to 1 µM,"N#Cc1cc(F)cc(-c2ccc3oc([C@@H]4CCCN4C#N)nc3c2)c1 [Example 138, (S)-2-(5-(3-Cyano-5-fluorophenyl)-benzo[d]oxazol-2-yl)pyrrolidine-1-carbonitrile]"
7,1 to 10 µM,"Cc1ccc(S(=O)(=O)NCc2ccccc2)cc1-c1ccc2oc([C@@H]3CCCN3C#N)nc2c1 [Example 139, (S)-N-Benzyl-3-(2-(1-cyanopyrrolidin-2-yl)-benzo[d]oxazol-5-yl)-4-methyl-benzenesulfonamide]"
8,1 to 10 µM,"N#CN1CCCC1c1nnc(-c2cccc(-c3ccccc3)c2)o1 (stereo not drawn) [Example 140, 2-(5-([1,1′-Biphenyl]-3-yl)-1,3,4-oxadiazol-2-yl)pyrrolidine-1-carbonitrile]"
9,0.1 to 1 µM,"N#CN1CCC[C@H]1c1nc(-c2cccc(-c3ccccc3)c2)no1 [Example 141, (S)-2-(3-([1,1′-Biphenyl]-3-yl)-1,2,4-oxadiazol-5-yl)pyrrolidine-1-carbonitrile]"
10,1 to 10 µM,"N#CN1CCCC1c1noc(-c2cccc(-c3ccccc3)n2)n1 (stereo not drawn) [Example 142, 2-(5-(6-Phenylpyridin-2-yl)-1,2,4-oxadiazol-3-yl)pyrrolidine-1-carbonitrile]"
11,1 to 10 µM,"Cn1nccc1-c1cccc(-c2nc(C3CCCN3C#N)no2)c1 (stereo not drawn) [Example 143, 2-(5-(3-(1-Methyl-1H-pyrazol-5-yl)phenyl)-1,2,4-oxadiazol-3-yl)pyrrolidine-1-carbonitrile]"
12,1 to 10 µM,"COc1cc(-c2cccc(-c3nc(C4CCCN4C#N)no3)c2)ccn1 (stereo not drawn) [Example 144, 2-(5-(3-(2-Methoxypyridin-4-yl)phenyl)-1,2,4-oxadiazol-3-yl)pyrrolidine-1-carbonitrile]"
13,0.1 to 1 µM,"COc1ccc(C#N)cc1-c1cccc(-c2nc(C3CCCN3C#N)no2)c1 (stereo not drawn) [Example 146, 2-(5-(5′-Cyano-2′-methoxy-[1,1′-biphenyl]-3-yl)-1,2,4-oxadiazol-3-yl)pyrrolidine-1-carbonitrile]"
14,1 to 10 µM,"Cc1noc(C)c1-c1cccc(-c2nc(C3CCCN3C#N)no2)c1 (stereo not drawn) [Example 147, 2-(5-(3-(3,5-Dimethylisoxazol-4-yl)phenyl)-1,2,4-oxadiazol-3-yl)pyrrolidine-1-carbonitrile]"
15,1 to 10 µM,"Cn1cc(-c2cccc(-c3nc(C4CCCN4C#N)no3)c2)cn1 (stereo not drawn) [Example 148, 2-(5-(3-(1-Methyl-1H-pyrazol-4-yl)phenyl)-1,2,4-oxadiazol-3-yl)pyrrolidine-1-carbonitrile]"
16,1 to 10 µM,"N#CN1CCCC1c1noc(-c2cccc(-c3ccc(C(N)=O)cc3)c2)n1 (stereo not drawn) [Example 149, 3′-(3-(1-Cyanopyrrolidin-2-yl)-1,2,4-oxadiazol-5-yl)-[1,1′-biphenyl]-4-carboxamide]"
17,1 to 10 µM,"CN(C)S(=O)(=O)c1cccc(-c2cccc(-c3nc(C4CCCN4C#N)no3)c2)c1 (stereo not drawn) [Example 150, 3′-(3-(1-Cyanopyrrolidin-2-yl)-1,2,4-oxadiazol-5-yl)-N,N-dimethyl-[1,1′-biphenyl]-3-sulfonamide]"
18,0.1 to 1 µM,Cn1ncc2cc(-c3cccc(-c4nc(C5CCCN5C#N)no4)c3)ccc21 (stereo not drawn) [Example 151]
19,0.1 to 1 µM,"N#CN1CCCC1c1noc(-c2cccc(-c3cccnc3)c2)n1 (stereo not drawn) [Example 152, 2-(5-(3-(Pyridin-3-yl)phenyl)-1,2,4-oxadiazol-3-yl)pyrrolidine-1-carbonitrile]"
20,0.1 to 1 µM,"CS(=O)(=O)c1ccc(-c2cccc(-c3nc(C4CCCN4C#N)no3)c2)cc1 (stereo not drawn) [Example 153, 2-(5-(4′-(Methylsulfonyl)-[1,1′-biphenyl]-3-yl)-1,2,4-oxadiazol-3-yl)pyrrolidine-1-carbonitrile]"
21,0.1 to 1 µM,"Cc1ccc(-c2cccc(-c3nc(C4CCCN4C#N)no3)c2)cn1 (stereo not drawn) [Example 154, 2-(5-(3-(6-Methylpyridin-3-yl)phenyl)-1,2,4-oxadiazol-3-yl)pyrrolidine-1-carbonitrile]"

row,IC50,Compound
1,0.1 to 1 µM,"N#Cc1ccccc1-c1cccc(-c2nc(C3CCCN3C#N)no2)c1 (stereo not drawn) [Example 155, 2-(5-(2′-Cyano-[1,1′-biphenyl]-3-yl)-1,2,4-oxadiazol-3-yl)pyrrolidine-1-carbonitrile]"
2,0.1 to 1 µM,"COC(=O)c1ccccc1-c1cccc(-c2nc(C3CCCN3C#N)no2)c1 (stereo not drawn) [Example 156, Methyl 3′-(3-(1-cyanopyrrolidin-2-yl)-1,2,4-oxadiazol-5-yl)-[1,1′-biphenyl]-2-carboxylate]"
3,< 0.1 µM,"N#CN1CCCC1c1noc(-c2cccc(-c3ccc([N+](=O)[O-])cc3)c2)n1 (stereo not drawn) [Example 157, 2-(5-(4′-Nitro-[1,1′-biphenyl]-3-yl)-1,2,4-oxadiazol-3-yl)pyrrolidine-1-carbonitrile]"
4,1 to 10 µM,"COc1ccc(-c2cccc(-c3nc(C4CCCN4C#N)no3)c2)cn1 (stereo not drawn) [Example 158, 2-(5-(3-(6-Methoxypyridin-3-yl)phenyl)-1,2,4-oxadiazol-3-yl)pyrrolidine-1-carbonitrile]"
5,1 to 10 µM,"N#CN1CCCC1c1noc(-c2cccc(-c3cncnc3)c2)n1 (stereo not drawn) [Example 159, 2-(5-(3-(Pyrimidin-5-yl)phenyl)-1,2,4-oxadiazol-3-yl)pyrrolidine-1-carbonitrile]"
6,0.1 to 1 µM,"N#CN1CCCC1c1noc(-c2cccc(-c3ccoc3)c2)n1 (stereo not drawn) [Example 160, 2-(5-(3-(Furan-3-yl)phenyl)-1,2,4-oxadiazol-3-yl)pyrrolidine-1-carbonitrile]"
7,0.1 to 1 µM,"COc1ncccc1-c1cccc(-c2nc(C3CCCN3C#N)no2)c1 (stereo not drawn) [Example 162, 2-(5-(3-(2-Methoxypyridin-3-yl)phenyl)-1,2,4-oxadiazol-3-yl)pyrrolidine-1-carbonitrile]"
8,< 0.1 µM,"N#Cc1cc(F)cc(-c2cccc(-c3nc(C4CCCN4C#N)no3)c2)c1 (stereo not drawn) [Example 163, 2-(5-(3′-Cyano-5′-fluoro-[1,1′-biphenyl]-3-yl)-1,2,4-oxadiazol-3-yl)pyrrolidine-1-carbonitrile]"
9,1 to 10 µM,"Cc1cncc(-c2cccc(-c3nc(C4CCCN4C#N)no3)c2)c1 (stereo not drawn) [Example 164, 2-(5-(3-(5-Methylpyridin-3-yl)phenyl)-1,2,4-oxadiazol-3-yl)pyrrolidine-1-carbonitrile]"
10,0.1 to 1 µM,"Cc1cccc2cc(-c3cccc(-c4nc(C5CCCN5C#N)no4)c3)[nH]c12 (stereo not drawn) [Example 165, 2-(5-(3-(7-Methyl-1H-indo1-2-yl)phenyl)-1,2,4-oxadiazol-3-yl)pyrrolidine-1-carbonitrile]"
11,0.1 to 1 µM,"N#CN1CCCC1c1noc(-c2ccnc(-c3cccc(OC(F)(F)F)c3)c2)n1 (stereo not drawn) [Example 168, 2-(5-(2-(3-(Trifluoromethoxy)phenyl)-pyridin-4-yl)-1,2,4-oxadiazol-3-yl)pyrrolidine-1-carbonitrile]"
12,1 to 10 µM,"N#CN1CCCC1c1noc(-c2ccnc(-c3ccc(OC(F)(F)F)cc3)c2)n1 (stereo not drawn) [Example 169, 2-(5-(2-(4-(Trifluoromethoxy)phenyl)-pyridin-4-yl)-1,2,4-oxadiazol-3-yl)pyrrolidine-1-carbonitrile]"
13,1 to 10 µM,"N#CN1CCCC1c1noc(-c2ccnc(-c3cccc(C(N)=O)c3)c2)n1 (stereo not drawn) [Example 170, 3-(4-(3-(1-Cyanopyrrolidin-2-yl)-1,2,4-oxadiazol-5-yl)pyridin-2-yl)benzamide]"
14,1 to 10 µM,"CNC(=O)c1cccc(-c2cc(-c3nc(C4CCCN4C#N)no3)ccn2)c1 (stereo not drawn) [Example 171, 3-(4-(3-(1-Cyanopyrrolidin-2-yl)-1,2,4-oxadiazol-5-yl)pyridin-2-yl)-N-methylbenzamide]"
15,0.1 to 1 µM,"N#Cc1cccc(-c2ccnc(-c3nc(C4CCCN4C#N)no3)c2)c1 (stereo not drawn) [Example 172, 2-(5-(4-(3-Cyanophenyl)pyridin-2-yl)-1,2,4-oxadiazol-3-yl)pyrrolidine-1-carbonitrile]"
16,< 0.1 µM,"N#Cc1ccc(-c2cccc(-c3nc([C@@H]4CCCN4C#N)no3)c2)cc1 [Example 174, (S)-2-(5-(4′-Cyano-[1,1′-biphenyl]-3-yl)-1,2,4-oxadiazol-3-yl)pyrrolidine-1-carbonitrile]"
17,< 0.1 µM,"N#Cc1ccc(-c2cccc(-c3nc([C@@H]4CCCN4C#N)no3)n2)cc1 [Example 175, (S)-2-(5-(6-(4-Cyanophenyl)pyridin-2-yl)-1,2,4-oxadiazol-3-yl)pyrrolidine-1-carbonitrile]"
18,0.1 to 1 µM,"N#Cc1ccc(-c2ccnc(-c3nc([C@@H]4CCCN4C#N)no3)c2)cc1 [Example 176, (S)-2-(5-(4-(4-Cyanophenyl)pyridin-2-yl)-1,2,4-oxadiazol-3-yl)pyrrolidine-1-carbonitrile]"
19,0.1 to 1 µM,"N#Cc1ccc(-c2cc(-c3nc([C@@H]4CCCN4C#N)no3)ccn2)cc1 [Example 177, (S)-2-(5-(2-(4-Cyanophenyl)pyridin-4-yl)-1,2,4-oxadiazol-3-yl)pyrrolidine-1-carbonitrile]"
20,0.1 to 1 µM,"N#Cc1ccc2ccc(-c3nc([C@@H]4CCCN4C#N)no3)cc2c1 [Example 178, (S)-2-(5-(7-Cyanonaphthalen-2-yl)-1,2,4-oxadiazol-3-yl)pyrrolidine-1-carbonitrile]"

row,Compound,IC50
1,N#CN1CCCC1c1noc(-c2ccnc(-c3ccccc3)c2)n1 (stereo not drawn) [Example 167],0.1 to 1 µM
